Experiments:
B. cinerea [1] = test: ELISA-based inhibition assay of B. cinerea growth; type: cell-based, Botrytis cinerea; conditions: compared to hydrophobins from T. harzianum strains T22 and M10
From the text: FIG. 4. Antifungal effect of HYTLO1 on B. cinerea growth compared to similar hydrophobins purified from T. harzianum strain T22 and T. harzianum strain M10. Assay protocol is described in Lorito M. et al. 1994. Microbiology UK, 140:623-629. Numbers on the left side indicate micro molar concentration of HYTLO1 used. T22 and M10=hydrophobin from strain T22 and M10, respectively. The inhibition of the pathogen colony is indicated by the reduced intensity of the dark color in the wells compared to control (C).

Lotus japonicus = test: Rhizobium lotii on Lotus japonicus in vitro system, plant growth and nodule density; type: in vivo; conditions: HYTLO1 0.07 μM, 6PP 0.002 μM, 4 weeks after seeding
Procedure: Wt+Rhz=treatment with R. loti, Wt-Rhz without R. loti. (D) Growth measured after 4 weeks, in the absence (cont) or presence of Rhizoba R. loti ((+) Rhiz). The purified molecules were added to the sterile MS media and poured into Petri dishes. Data were recorded 4 weeks after seeding of L. japonicus.
FIG. 18. […] (HYT=HYTLO1 at 0.07 μM, 6PP at 0.002 μM, HA=Harzianic Acid at 0.001 μM). Wt=control with R. loti without metabolites. The purified molecules were added to the sterile MS media and poured into Petri dishes. Average number of nodules per cm of root are indicated. Data were recorded 4 weeks after seeding of L. japonicus.
In order to test the effect of HYTLO1, as well as of the secondary metabolites HA and 6PP on the growth promotion activity of Rhizobia, such as Rhizobium sp., on legumimosae plants, we used a standard Rhizobium lotii on Lotus japonicus in vitro system (Barbulova et al., 2005, Functional Plant Biology, 32:529-536). Plant growth and nodule density on the roots were scored four weeks after seeding by comparing untreated controls and the various treatments.

tomato plants = test: tomato plant growth, watering and spraying; type: in vivo; conditions: 0.01 μM, once per week for one month; vs T. harzianum T22, GERMON E and untreated control
From the text: FIG. 10: Effect of HYTLO1 on tomato plant growth as compared to treatment with T. harzianum strain T22 or the Commercial product GERMON E (G-E) base on the auxin 1-naphthaleneacetic acid, commercialized by L. Gobbi, Italy. (A) Growth increase of root and stem of HYTLO1 vs. water control, GERMON E or T22, 10 days after treatment. (B) Increase of root development (HYTLO1 treatment on the left, untreated control on the right), (C) Effect of HYTLO1 on plant size compared to T22. (D) Effect of HYTLO1 on root development compared to water control, T22, GERMON E (also in combination with HYTLO1). HYTLO1 was applied at final concentration in the soil at 10^−8 M.
FIG. 11: Effect of purified HYTLO1 on tomato plants, applied by drench on the roots or by spraying on the leaves. For the irrigation, 50 ml of a solution containing 0.072 μg/ml of HYTLO1 (0.01 μM) were applied for each pot containing 1 litre of soil and 2 tomato plants, for a total of 4 applications. For foliar application, 20 ml of a solution containing 0.072 μg/ml (0.01 μM) of HYTLO1 were sprayed for each pot containing 2 tomato plants for a total of 4 applications. […]

Botrytis cinerea = test: spore germination in Potato Dextrose Broth; type: cell-based; conditions: 5 μM HYTLO1, 25° C., 24 hours, PDB
Procedure: (§1) FIG. 3: HYTLO1 antifungal activity. Spore of the pathogens Botrytis cinerea and Alternaria spp. and of the biocontrol agent Trichoderma harzianum strain MK1-KV966 were germinated at 25° C. for 24 hours in Potato Dextrose Broth (PDB) containing 5 μM of HYTLO1 and compared with those germinated in PDB plus the same solvent as the control.

Alternaria spp. = test: spore germination in Potato Dextrose Broth; type: cell-based; conditions: 5 μM HYTLO1, 25° C., 24 hours, PDB
Procedure: as §1

B. cinerea [2] = test: infection of tomato leaves by the pathogen B. cinerea; type: in vivo, Botrytis cinerea; conditions: 10 μL applied to tomato leaf 2 hours before B. cinerea spores; up to 72 hr after inoculation
Procedure: FIG. 8: Effect of purified HYTLO1 application on the infection of tomato leaves by the pathogen B. cinerea. 10 μL of a solution of HYTLO1 were applied to tomato leaves and 2 hours later 10 μL of a B. cinerea spore suspension 1×10^6/ml were applied on the same spot. The measures were taken 72 hours post inoculation. The standard deviation bars were obtained from at least three different experiments, with five replicates and a total of 15 treated leaves per treatment. In order to determine if purified HYTLO1 is able to protect the plant from foliar infection by a pathogenic fungus, the protein was tested on tomato grown-up plants against Botrytis cinerea.

HYTLO1: about 7 KDa Type II hydrophobin protein from Trichoderma longibrachiatum strain MK1, 71 aa, SEQ ID NO: 1
antifungal effect on B. cinerea growth (B. cinerea [1]): strong antifungal effect | plant growth promotion effect of Rhizobia on Lotus japonicus (Lotus japonicus; HA 0.001 μM in MS media): enhances the plant growth promotion effect of Rhizobia | nodule formation (number of nodules per cm of root) (Lotus japonicus; HA 0.001 μM, with R. loti): Enhancement of nodule formation | growth parameters (plant height and length, root length and weight, number of leaves, stem diameter and weight) (tomato plants): increased all of the growth parameters | effect on germination of spores (Botrytis cinerea): direct inhibitory effect | effect on germination of spores (Alternaria spp.): direct inhibitory effect | concentration of HYTLO1 that significantly reduced the size of the necrotic area (B. cinerea [2]): above 1.25 μM
